Source: ChEMBL document CHEMBL5346954, “Rational Design of RNA Demethylase FTO Inhibitors with Enhanced Antileukemia Drug-Like Properties” (J Med Chem, 2023)
Converted amounts (≈) assume the structure as drawn. Each block holds one molecule with its values, some of them ahead of it. The source made the active and inactive calls. No cut-off for these calls is given here.

Legend:
[1] = system: MOLM-13; experiment: Antiproliferative activity against human MOLM-13 cells incubated for 72 hrs by CCK8 assay; format: functional, cell-based; conditions: MOLM-13, 72 h
[2] = system: NB-4; experiment: Antiproliferative activity against human NB4 cells incubated for 72 hrs by CCK8 assay; format: functional, cell-based; conditions: NB-4, 72 h
[3] = target: T1, Alpha-ketoglutarate-dependent dioxygenase FTO (Homo sapiens, UniProt Q9C0B1); experiment: Inhibition of FTO (unknown origin)
Target sequence in this assay (Q9C0B1 whole entry): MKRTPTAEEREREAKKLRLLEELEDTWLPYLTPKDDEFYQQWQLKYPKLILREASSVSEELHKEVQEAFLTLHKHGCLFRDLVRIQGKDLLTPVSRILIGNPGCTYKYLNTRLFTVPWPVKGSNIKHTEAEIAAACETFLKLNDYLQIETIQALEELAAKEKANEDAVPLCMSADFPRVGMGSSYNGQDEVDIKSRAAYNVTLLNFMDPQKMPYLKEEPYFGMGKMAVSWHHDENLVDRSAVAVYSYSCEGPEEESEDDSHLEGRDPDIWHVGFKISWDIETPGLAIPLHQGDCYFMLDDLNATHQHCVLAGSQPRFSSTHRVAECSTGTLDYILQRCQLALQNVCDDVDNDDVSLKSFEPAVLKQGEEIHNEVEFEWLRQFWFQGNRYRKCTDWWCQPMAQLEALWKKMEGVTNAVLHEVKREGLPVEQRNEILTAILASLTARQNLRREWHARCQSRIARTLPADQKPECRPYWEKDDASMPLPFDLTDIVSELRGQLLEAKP

[4] = Cmax in ICR mouse at 10 mg/kg, po measured upto 24 hrs by LC-MS/MS analysis; format: ADME, organism-based; set-up: dose 10 mg/kg, time < 24 hrs, route po; conditions: in vivo
[5] = Tmax in ICR mouse at 10 mg/kg, po measured upto 24 hrs by LC-MS/MS analysis; format: ADME, organism-based; conditions: in vivo
[6] = Metabolic stability in mouse liver microsomes assessed as intrinsic clearance per mg of protein; format: ADME, Microsome; conditions: read-out: CLH
[7] = AUC(0 to infinity) in ICR mouse at 10 mg/kg, po measured upto 24 hrs by LC-MS/MS analysis; format: ADME, organism-based; set-up: time < 24 hrs, dose 10 mg/kg, route po; conditions: in vivo
[8] = Metabolic stability in mouse liver microsomes assessed as half life; format: ADME, Microsome
[9] = Metabolic stability in human liver microsomes assessed as half life; format: ADME, Microsome
[10] = AUC(0 to infinity) in ICR mouse at 1 mg/kg, iv measured upto 24 hrs by LC-MS/MS analysis; format: ADME, organism-based; set-up: dose 1 mg/kg, time < 24 hrs, route iv; conditions: in vivo
[11] = Tmax in ICR mouse at 1 mg/kg, iv measured upto 24 hrs by LC-MS/MS analysis; format: ADME, organism-based; conditions: in vivo
[12] = AUC(0 to t) in ICR mouse at 10 mg/kg, po measured upto 24 hrs by LC-MS/MS analysis; format: ADME, organism-based; set-up: dose 10 mg/kg, time < 24 hrs, route po; conditions: in vivo
[13] = Permeability of the compound by PAMPA; format: ADME; conditions: read-out: permeability
[14] = Oral bioavailability in ICR mouse at 10 mg/kg measured upto 24 hrs by LC-MS/MS analysis; format: ADME, organism-based; conditions: in vivo
[15] = Solubility of the compound in PBS at pH 7.4; format: physicochemical
[16] = AUC(0 to t) in ICR mouse at 1 mg/kg, iv measured upto 24 hrs by LC-MS/MS analysis; format: ADME, organism-based; set-up: time < 24 hrs, dose 1 mg/kg, route iv; conditions: in vivo
[17] = Metabolic stability in human liver microsomes assessed as intrinsic clearance per mg of protein; format: ADME, Microsome; conditions: read-out: CLH
[18] = Cmax in ICR mouse at 1 mg/kg, iv measured upto 24 hrs by LC-MS/MS analysis; format: ADME, organism-based; set-up: time < 24 hrs, dose 1 mg/kg, route iv; conditions: in vivo
[19] = target: T1, Alpha-ketoglutarate-dependent dioxygenase FTO; experiment: Inhibition of FTO in human MOLM-13 cells assessed as downregulation Myc RNA level at 5 to 10 uM incubated for 72 hrs by RT-qPCR analysis; format: cell-based; conditions: dose 5-10 µM
Target sequence in this assay (Q9C0B1 whole entry, looked up): as the sequence (Q9C0B1 whole entry) above

[20] = system: MV4-11; experiment: Antitumor activity against human MV4-11 cells xenografted in BALB/c mouse assessed as reduction in tumor volume at 40 mg/kg, ip administered daily for 26 days; format: functional, organism-based; conditions: time 26.0 day
[21] = system: HEL; experiment: Antiproliferative activity against HEL cells incubated for 72 hrs by CCK8 assay; format: functional, cell-based; conditions: Homo sapiens
[22] = target: T1, Alpha-ketoglutarate-dependent dioxygenase FTO; experiment: Inhibition of FTO (unknown origin) using (5'-AUUGUCA(M6A)CAGCAGC-3') as substrate incubated for 2 hrs by dot-blot assay
Target sequence in this assay (Q9C0B1 whole entry): as above

[23] = target: T1, Alpha-ketoglutarate-dependent dioxygenase FTO; experiment: Inhibition of FTO (unknown origin) by PAGE based assay
Target sequence in this assay (Q9C0B1 whole entry): as above

[24] = system: NB-4; experiment: Inhibition of colony formation in human NB4 cells incubated for 14 days by nitroblue tetrazolium chloride staining based assay; format: functional, cell-based; conditions: time 14.0 day
[25] = system: KG-1; experiment: Antiproliferative activity against human KG-1 cells incubated for 72 hrs by CCK8 assay; format: functional, cell-based; conditions: KG-1, 72 h
[26] = target: RNA demethylase ALKBH5 (Homo sapiens) (UniProt Q6P6C2); experiment: Inhibition of ALKBH5 (unknown origin)
[27] = target: T2, Alpha-ketoglutarate-dependent dioxygenase alkB homolog 3 (Homo sapiens) (UniProt Q96Q83); experiment: Inhibition of ALKBH3 (unknown origin)
T2 sequence (whole entry): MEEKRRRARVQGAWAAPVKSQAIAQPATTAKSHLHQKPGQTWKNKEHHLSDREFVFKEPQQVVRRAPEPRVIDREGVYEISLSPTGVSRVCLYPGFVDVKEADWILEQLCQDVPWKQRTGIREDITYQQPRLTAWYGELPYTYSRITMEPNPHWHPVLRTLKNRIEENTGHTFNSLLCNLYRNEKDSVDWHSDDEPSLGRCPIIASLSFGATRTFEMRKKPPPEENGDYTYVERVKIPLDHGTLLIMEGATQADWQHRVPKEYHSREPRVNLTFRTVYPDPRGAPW

[28] = target: T1, Alpha-ketoglutarate-dependent dioxygenase FTO; experiment: Inhibition of FTO in human NB4 cells assessed as increase in abundance of m6A on RNA at 5 to 20 uM incubated for 48 hrs by dot-blot assay; format: cell-based; conditions: dose 5-20 µM
Target sequence in this assay (Q9C0B1 whole entry, looked up): as the sequence (Q9C0B1 whole entry) above

[29] = target: T1, Alpha-ketoglutarate-dependent dioxygenase FTO; experiment: Inhibition of FTO in human MOLM-13 cells assessed as upregulation RARA RNA level at 5 to 10 uM incubated for 72 hrs by RT-qPCR analysis; format: cell-based; conditions: dose 5-10 µM
Target sequence in this assay (Q9C0B1 whole entry, looked up): as the sequence (Q9C0B1 whole entry) above

[30] = target: T1, Alpha-ketoglutarate-dependent dioxygenase FTO; experiment: Inhibition of FTO in human MOLM-13 cells assessed as upregulation RARA protein level at 5 to 10 uM incubated for 48 hrs by Western blot analysis; format: cell-based; conditions: dose 5-10 µM
Target sequence in this assay (Q9C0B1 whole entry, looked up): as the sequence (Q9C0B1 whole entry) above

[31] = target: T1, Alpha-ketoglutarate-dependent dioxygenase FTO; experiment: Inhibition of FTO in human MOLM-13 cells assessed as downregulation Myc protein level at 5 to 10 uM incubated for 48 hrs by Western blot analysis; format: cell-based; conditions: dose 5-10 µM
Target sequence in this assay (Q9C0B1 whole entry, looked up): as the sequence (Q9C0B1 whole entry) above

[32] = system: Mus musculus; experiment: In vivo inhibition of FTO in human MV4-11 cells xenografted in BALB/c mouse assessed as increase in m6A abundance at 40 mg/kg, ip administered daily for 26 days; format: functional, organism-based; conditions: time 26.0 day
[33] = system: MOLM-13; experiment: Inhibition of colony formation in human MOLM-13 cells incubated for 14 days by nitroblue tetrazolium chloride staining based assay; format: functional, cell-based; conditions: time 14.0 day
[34] = target: T1, Alpha-ketoglutarate-dependent dioxygenase FTO; experiment: Inhibition of FTO in human MOLM-13 cells assessed as increase in abundance of m6A on RNA at 5 to 20 uM incubated for 48 hrs by dot-blot assay; format: cell-based; conditions: dose 5-20 µM
Target sequence in this assay (Q9C0B1 whole entry, looked up): as the sequence (Q9C0B1 whole entry) above

[35] = system: THP-1; experiment: Antiproliferative activity against human THP-1 cells incubated for 72 hrs by CCK8 assay; format: functional, cell-based; conditions: THP-1, 72 h
[36] = system: MV4-11; experiment: Antitumor activity against human MV4-11 cells xenografted in BALB/c mouse assessed as reduction in tumor weight at 40 mg/kg, ip administered daily for 26 days; format: functional, organism-based; conditions: time 26.0 day
[37] = Toxicity in BALB/c mouse xenografted with human MV4-11 cells assessed as body weight loss at 40 mg/kg, ip administered daily for 26 days; format: organism-based; conditions: in vivo, 624 h, time 26 day
[38] = system: MV4-11; experiment: Antiproliferative activity against human MV4-11 cells incubated for 72 hrs by CCK8 assay; format: functional, cell-based; conditions: MV4-11, 72 h

Chain of RNA demethylase ALKBH5 (Homo sapiens) (Q6P6C2 2-394 limits assumed): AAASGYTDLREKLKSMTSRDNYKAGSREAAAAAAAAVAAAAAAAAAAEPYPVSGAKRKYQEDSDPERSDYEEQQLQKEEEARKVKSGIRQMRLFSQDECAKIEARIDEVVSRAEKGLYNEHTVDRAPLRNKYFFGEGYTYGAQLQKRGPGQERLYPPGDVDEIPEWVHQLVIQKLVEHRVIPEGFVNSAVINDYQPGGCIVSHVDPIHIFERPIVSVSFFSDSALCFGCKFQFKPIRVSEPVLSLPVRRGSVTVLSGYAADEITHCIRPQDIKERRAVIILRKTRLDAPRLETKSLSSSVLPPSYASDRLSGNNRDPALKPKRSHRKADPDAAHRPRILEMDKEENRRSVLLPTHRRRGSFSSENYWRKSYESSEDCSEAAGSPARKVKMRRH

IC50 [1]: 1500 nM
Compound: Cc1noc(C)c1-c1c(F)c(F)c(Nc2cccc(CN3CCCOCC3)c2C(=O)O)c(F)c1F
IC50 [2]: 1000 nM

IC50 [1]: 1500 nM
Compound: CCc1cc(-c2ccncc2)cc(CC)c1Nc1cccc(CN2CC(N(C)C)C2)c1C(=O)O
IC50 [2]: 1000 nM

IC50 [3]: 7600 nM
Compound: CCc1cc(-c2ccncc2)cc(CC)c1Nc1cccc(CN(CC)CC)c1C(=O)O

Cmax [4]: 8500 ng/mL | Tmax [5]: 1 h | microsomal CLint [6]: < 7.5 µL/min/mg | AUC(0-inf) [7]: 68800 ng·h/mL | half-life [8]: 1.76 h | half-life [9]: > 3.08 h | AUC(0-inf) [10]: 39200 ng·h/mL | Tmax [11]: 1.5 h | AUC(0-t) at 24 h [12]: 63600 ng·h/mL | Papp [13]: 17.4 ×10⁻⁶ cm/s | bioavailability [14]: 17.5% | solubility [15]: 275 µM (≈ 99.1 µg/mL) | AUC(0-t) at 24 h [16]: 36200 ng·h/mL | microsomal CLint [17]: < 7.5 µL/min/mg | Cmax [18]: 5400 ng/mL
Compound: Cc1noc(C)c1-c1cc(F)c(Nc2ccccc2C(=O)O)c(Cl)c1

IC50 [1]: 1500 nM
Compound: Cc1noc(C)c1-c1cc(F)c(Nc2cccc(CN3CCCOCC3)c2C(=O)O)c(F)c1F
IC50 [2]: 1000 nM

IC50 [3]: 2600 nM
Compound: O=C(O)c1c(CN2CCCOCC2)cccc1Nc1c(C2CC2)cc(-c2ccncc2)cc1C1CC1

IC50 [1]: 1500 nM | Papp [13]: 4.5 ×10⁻⁶ cm/s | solubility [15]: 18.1 µM (≈ 8.86 µg/mL) | IC50 [3]: 4000 nM
Compound: Cc1n[nH]c(C)c1-c1cc(Cl)c(Nc2cccc(CN3CCCOCC3)c2C(=O)O)c(Cl)c1
IC50 [2]: 1000 nM

IC50 [3]: 6500 nM
Compound: CCc1cc(-c2ccncc2)cc(CC)c1Nc1cccc(Cn2ccnc2)c1C(=O)O

IC50 [3]: 6800 nM
Compound: CCc1cc(-c2ccncc2)cc(CC)c1Nc1cccc(CN(CC)CCN2CCOCC2)c1C(=O)O

IC50 [1]: 2200 nM | Papp [13]: 14.1 ×10⁻⁶ cm/s | solubility [15]: 42.6 µM (≈ 22.3 µg/mL) | IC50 [3]: 6100 nM
Compound: Cc1noc(C)c1-c1cc(Cl)c(Nc2cccc(CN3CCCOCC3)c2C(=O)O)c(C(F)(F)F)c1
IC50 [2]: 2300 nM

IC50 [1]: 1500 nM
Compound: CCc1cc(-c2ccncc2)cc(CC)c1Nc1cccc(CN2CCCOCC2)c1C(=O)O
IC50 [2]: 1000 nM

IC50 [3]: 6300 nM
Compound: CCc1cc(-c2ccncc2)cc(CC)c1Nc1cccc(CN(CCOC)CCOC)c1C(=O)O

inhibition [19]: Active | Cmax [4]: 7200 ng/mL | Tmax [5]: 0.5 h | microsomal CLint [6]: 13.3 µL/min/mg | AUC(0-inf) [7]: 103000 ng·h/mL | IC50 [22]: 120 nM | IC50 [1]: 1700 nM | IC50 [23]: 2300 nM | half-life [8]: > 3.08 h | half-life [9]: 1.53 h | inhibition [26]: inactive | inhibition [27]: inactive | inhibition [28]: Active | inhibition [29]: Active | inhibition [30]: Active | AUC(0-inf) [10]: 55600 ng·h/mL | inhibition [31]: Active | Tmax [11]: 2.5 h | AUC(0-t) at 24 h [12]: 80500 ng·h/mL | Papp [13]: 21.4 ×10⁻⁶ cm/s | bioavailability [14]: 18.5% | inhibition [34]: Active | IC50 [35]: 6000 nM | solubility [15]: 7.6 µM (≈ 3.77 µg/mL) | AUC(0-t) at 24 h [16]: 46200 ng·h/mL | microsomal CLint [17]: 15.1 µL/min/mg | IC50 [38]: 3400 nM | IC50 [3]: 2300 nM | Cmax [18]: 3700 ng/mL
Compound: Cc1noc(C)c1-c1cc(Cl)c(Nc2cccc(CN3CCCOCC3)c2C(=O)O)c(C2CC2)c1
Activity [20]: Active | IC50 [21]: 10300 nM | inhibition [24]: Dose-Dependent Effect | IC50 [25]: 4100 nM | IC50 [2]: 1500 nM | inhibition [32]: Active | inhibition [33]: Dose-Dependent Effect | Activity [36]: Active | Activity [37]: Non-Toxic

IC50 [1]: 1500 nM
Compound: CCc1cc(-c2c(C)noc2C)cc(CC)c1Nc1cccc(CN2CCCOCC2)c1C(=O)O
IC50 [2]: 1000 nM

Papp [13]: < 0.001 ×10⁻⁶ cm/s | solubility [15]: 305 µM (≈ 141 µg/mL)
Compound: O=C(O)c1c(CN2CCCOCC2)cccc1Nc1c(Cl)cc(-c2nnn[nH]2)cc1Cl
